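Cultured in 96-well plates, cells were exposed to test compound for 48 hours across five concentrations. Abbreviation: GI50, concentration required for 50% inhibition of growth. TGI marks complete inhibition of growth.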 Where a SMILES comes first, the peptide text is derived from it. The star is where a group is joined. Cbz = O=C(OCc1ccccc1)*
Experiments:
Assay in all cases: DTP human tumour cell line panel, 48 h
[1] = tested on: ACHN renal
[2] = tested on: UACC-62 melanoma
[3] = tested on: SR leukemia
[4] = tested on: HL-60(TB) leukemia
[5] = tested on: UACC-257 melanoma
[6] = tested on: SNB-19 CNS
[7] = tested on: OVCAR-5 ovarian
[8] = tested on: NCI-H460 lung
[9] = tested on: HCT-116 colon
[10] = tested on: HOP-92 NSCLC

Cc1nc2cccc([N+](=O)[O-])c2n1CCCN(C)C
TGI [1]: > 100 µM | TGI [2]: > 100 µM | TGI [3]: > 100 µM | TGI [4]: > 100 µM | TGI [5]: > 100 µM | TGI [6]: > 100 µM | TGI [7]: > 100 µM | TGI [8]: > 100 µM | TGI [9]: > 100 µM

COc1cccc(C=C2N=C(C)N(n3c(-c4ccccc4)nc4ccccc4c3=O)C2=O)c1
TGI [1]: > 100 µM | TGI [2]: > 100 µM | TGI [3]: > 100 µM | TGI [4]: > 100 µM | TGI [5]: > 100 µM | TGI [6]: > 100 µM | TGI [8]: > 100 µM | TGI [9]: > 100 µM

COc1ccc(-c2cc(-c3ccccc3)nc3c2CC(=O)Nc2ccccc2-3)cc1OC
TGI [1]: > 100 µM | TGI [2]: > 100 µM | TGI [3]: > 100 µM | TGI [5]: > 100 µM | TGI [6]: > 100 µM | TGI [7]: > 100 µM | TGI [10]: > 100 µM | TGI [8]: > 100 µM

CCc1c(C)c2ccc(OCC(=O)N=Nc3c(O)[nH]c4ccccc34)c(C)c2oc1=O
GI50 [1]: > 33.3 µM | TGI [1]: > 33.3 µM | TGI [2]: > 33.3 µM | GI50 [3]: 1.2 µM | TGI [3]: > 33.3 µM | GI50 [7]: > 33.3 µM | TGI [7]: > 33.3 µM | GI50 [10]: 0.69 µM | TGI [10]: 1.56 µM

CC(C)(O)CCc1ccc(O)c2c(=O)c3c(O)c4c(cc3oc12)O[C@H]1OC=C[C@@]41O
TGI [1]: < 0.01 µM | TGI [2]: < 0.01 µM | TGI [3]: > 100 µM | TGI [5]: 0.291 µM | TGI [6]: > 59.5 µM | TGI [7]: 8.74 µM | TGI [10]: 14.8 µM | TGI [8]: 20.7 µM | TGI [9]: 4.52 µM

CCCCc1c2c(nc3c1CC/C(=C\c1ccc([N+](=O)[O-])cc1)C3=O)CCCC2
TGI [1]: 3.28 µM | TGI [2]: 3 µM | TGI [3]: 35.5 µM | TGI [5]: 4.6 µM | TGI [6]: 3.67 µM | TGI [8]: 2.92 µM | TGI [9]: 3.22 µM

O=C1CCCC2=C1CC1=C(CCCC1=O)N2c1cccc([N+](=O)[O-])c1
TGI [1]: > 100 µM | TGI [2]: > 100 µM | TGI [3]: > 100 µM | TGI [4]: > 100 µM | TGI [6]: > 100 µM | TGI [7]: > 100 µM | TGI [8]: > 100 µM

Cc1nc2ccccc2n1Cc1nnc2n1N=C(c1ccccc1)CS2
TGI [1]: > 100 µM | TGI [2]: 99.4 µM | TGI [4]: 95.3 µM | TGI [5]: 65.3 µM | TGI [6]: > 100 µM | TGI [7]: > 100 µM | TGI [8]: > 100 µM | TGI [9]: > 100 µM

COc1ccc(/C=C2\CN(C)CC3C2=NN(c2ccccc2)C3c2ccc(OC)cc2)cc1 (stereo unspecified)
TGI [1]: > 100 µM | TGI [2]: > 100 µM | TGI [5]: > 100 µM | TGI [6]: > 100 µM | TGI [7]: > 100 µM | TGI [10]: > 100 µM | TGI [8]: > 100 µM | TGI [9]: > 100 µM

Cc1nnc([C@@]2(C)CC[C@H]3[C@@H](CCC4=CC(=O)CC[C@@]43C)[C@@H]2CC#N)o1
TGI [1]: > 100 µM | TGI [2]: > 100 µM | TGI [3]: > 100 µM | TGI [4]: > 100 µM | TGI [5]: > 100 µM | TGI [6]: > 100 µM | TGI [7]: > 100 µM | TGI [10]: > 100 µM | TGI [9]: > 100 µM

CCOC(=O)CNC(=O)C(C)NC(=O)C(NC(=O)OCc1ccccc1)C(C)C (stereo not drawn) (Cbz-Val-Ala-Gly-OEt; configuration not given here)
TGI [1]: > 100 µM | TGI [2]: > 100 µM | TGI [3]: > 100 µM | TGI [5]: > 100 µM | TGI [6]: > 100 µM | TGI [7]: > 100 µM | TGI [10]: > 100 µM | TGI [8]: > 100 µM | TGI [9]: > 100 µM

Reference: PubChem BioAssay (NCI)
